In US20260285872A1, “COMPOUNDS AND METHODS FOR DEGRADING GSPT1” (priority 2023, published 2026):
Read-outs that look alike come from different tables or passages of the source.

How the values were obtained:
NCI-H1155 cells = assay: NSCLC cell viability, CellTiter-Glo, NCI-H1155 cells; type: cell-based; conditions: Homo sapiens, read-out: Cell viability classification (NCI-H1155)
GSPT1 = GSPT1 (Homo sapiens, UniProt P15170+Q96SW2); type: cell-based
Protocol: GSPT1_HiBIT_HEK293 cells were culture in DMEM medium with 10% FBS under standard tissue culture conditions. […] GSPT1 level was determined in along with the Nano-Glo HiBiT Lytic Detection system [Promega N3050] with final concentration of 1×. The luminescence was normalized to that of DMSO-treated samples. DC50 values were obtained using three-parameter non-linear regressions using Prism (GraphPad).

[1] = NCI-H1155 cells, CellTiter-Glo, 72 hours of treatment
[2] = read-out: GSPT1 degradation classification; DC50, GSPT1_HiBIT_HEK293 cells, 16 hours, Nano-Glo HiBiT Lytic Detection
[3] = DC50, GSPT1_HiBIT_HEK293 cells, 16 hours, Nano-Glo HiBiT Lytic Detection; read-out: GSPT1 degradation classification

GSPT1, sequence (P15170 whole entry): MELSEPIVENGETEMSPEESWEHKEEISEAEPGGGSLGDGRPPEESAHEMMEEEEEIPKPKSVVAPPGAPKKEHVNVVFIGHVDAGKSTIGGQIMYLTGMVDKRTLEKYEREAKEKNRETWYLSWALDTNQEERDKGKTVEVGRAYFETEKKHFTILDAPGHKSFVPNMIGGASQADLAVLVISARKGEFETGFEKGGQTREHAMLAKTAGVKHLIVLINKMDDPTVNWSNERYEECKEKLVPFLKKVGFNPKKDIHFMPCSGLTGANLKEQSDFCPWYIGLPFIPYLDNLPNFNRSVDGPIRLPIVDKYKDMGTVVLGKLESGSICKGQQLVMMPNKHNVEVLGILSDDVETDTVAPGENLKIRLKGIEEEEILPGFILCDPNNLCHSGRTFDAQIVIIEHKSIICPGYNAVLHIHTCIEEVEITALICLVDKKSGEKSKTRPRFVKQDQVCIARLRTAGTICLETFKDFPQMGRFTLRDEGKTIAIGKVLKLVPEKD
GSPT1, sequence (Q96SW2 whole entry): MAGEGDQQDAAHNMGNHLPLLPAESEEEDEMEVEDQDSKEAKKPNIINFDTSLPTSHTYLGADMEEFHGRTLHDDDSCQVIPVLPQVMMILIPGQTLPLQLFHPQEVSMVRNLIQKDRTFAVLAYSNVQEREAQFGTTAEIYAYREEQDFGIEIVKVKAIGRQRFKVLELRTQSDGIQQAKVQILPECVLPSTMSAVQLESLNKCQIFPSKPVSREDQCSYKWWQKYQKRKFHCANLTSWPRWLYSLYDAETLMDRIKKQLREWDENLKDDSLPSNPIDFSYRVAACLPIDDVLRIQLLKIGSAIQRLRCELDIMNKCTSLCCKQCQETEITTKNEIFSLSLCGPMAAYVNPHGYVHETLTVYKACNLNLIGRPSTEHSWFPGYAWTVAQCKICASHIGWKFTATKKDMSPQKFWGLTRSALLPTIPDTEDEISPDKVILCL
GSPT1, sequence (Q16531 whole entry partner): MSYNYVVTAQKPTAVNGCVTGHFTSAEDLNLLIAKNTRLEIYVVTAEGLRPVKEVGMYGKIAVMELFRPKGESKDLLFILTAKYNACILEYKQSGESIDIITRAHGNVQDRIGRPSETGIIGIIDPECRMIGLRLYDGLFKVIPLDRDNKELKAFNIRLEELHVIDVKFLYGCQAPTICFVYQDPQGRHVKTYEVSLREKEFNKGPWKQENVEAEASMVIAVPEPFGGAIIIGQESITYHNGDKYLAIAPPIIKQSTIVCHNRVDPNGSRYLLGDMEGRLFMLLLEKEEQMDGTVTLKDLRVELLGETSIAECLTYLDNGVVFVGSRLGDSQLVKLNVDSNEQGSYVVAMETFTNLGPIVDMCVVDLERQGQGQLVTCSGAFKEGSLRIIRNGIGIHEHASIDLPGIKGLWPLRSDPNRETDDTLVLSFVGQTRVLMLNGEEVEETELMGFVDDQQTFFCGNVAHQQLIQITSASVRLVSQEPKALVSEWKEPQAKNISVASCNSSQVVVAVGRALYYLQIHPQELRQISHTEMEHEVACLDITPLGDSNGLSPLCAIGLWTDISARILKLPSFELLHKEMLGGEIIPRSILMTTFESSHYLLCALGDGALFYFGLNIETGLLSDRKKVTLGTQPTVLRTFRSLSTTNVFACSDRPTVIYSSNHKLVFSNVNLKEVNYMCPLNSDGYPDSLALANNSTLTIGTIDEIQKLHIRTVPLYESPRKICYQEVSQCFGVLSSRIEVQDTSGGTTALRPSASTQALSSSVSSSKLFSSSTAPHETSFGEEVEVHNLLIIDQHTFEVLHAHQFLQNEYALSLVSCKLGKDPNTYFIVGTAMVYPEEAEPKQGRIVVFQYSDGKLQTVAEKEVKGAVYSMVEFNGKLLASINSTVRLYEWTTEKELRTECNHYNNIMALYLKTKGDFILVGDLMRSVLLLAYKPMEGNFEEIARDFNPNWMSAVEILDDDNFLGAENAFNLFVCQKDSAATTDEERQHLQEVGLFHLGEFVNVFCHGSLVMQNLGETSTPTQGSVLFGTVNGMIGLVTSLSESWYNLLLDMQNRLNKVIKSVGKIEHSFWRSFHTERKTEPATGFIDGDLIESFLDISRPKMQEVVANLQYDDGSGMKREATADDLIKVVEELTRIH

DC50 (GSPT1; [3]) [nM] | Structure (SMILES) | IC50 (NCI-H1155 cells; [1]) [nM] | DC50 (GSPT1; [2]) [nM] | IC50 (NCI-H1155 cells; NCI-H1155, 72 h) [nM]
 | O=C1CCC(N2Cc3cc(C(=O)N4CCC5(CCC(F)(F)C5)C4)ccc3C2=O)C(=O)N1 (centres unmarked) [Example 201, 3-(5-(7,7-difluoro-2-azaspiro[4.4]nonane-2-carbonyl)-1-oxoisoindolin-2-yl)piperidine-2,6-dione] | 100 to 1000 | > 1000 | 
 | O=C1CCC(N2Cc3cc(C(=O)N4CC(F)(c5ccccc5F)C4)ccc3C2=O)C(=O)N1 (centres unmarked) [Example 202, 3-(5-(3-fluoro-3-(2-fluorophenyl)azetidine-1-carbonyl)-1-oxoisoindolin-2-yl)piperidine-2,6-dione] | 10 to 100 | 100 to 300 | 
 | O=C1CCC(N2Cc3cc(C(=O)N4CC5(C4)CC(F)(c4cccc(F)c4)C5)ccc3C2=O)C(=O)N1 (centres unmarked) [Example 203, 3-(5-(6-fluoro-6-(3-fluorophenyl)-2-azaspiro[3.3]heptane-2-carbonyl)-1-oxoisoindolin-2-yl)piperidine-2,6-dione] |  | > 1000 | 100 to 1000
 | O=C1CCC(N2Cc3cc(C(=O)N4CC5(C4)CC(F)(c4ccccc4F)C5)ccc3C2=O)C(=O)N1 (centres unmarked) [Example 204, 3-(5-(6-fluoro-6-(2-fluorophenyl)-2-azaspiro[3.3]heptane-2-carbonyl)-1-oxoisoindolin-2-yl)piperidine-2,6-dione] | 100 to 1000 | 100 to 300 | 
100 to 300 | O=C1CCC(N2Cc3cc(C(=O)N4CC5(CC(c6ccc(F)cc6)C5)C4)ccc3C2=O)C(=O)N1 (centres unmarked) [Example 205, 3-(5-(6-(4-fluorophenyl)-2-azaspiro[3.3]heptane-2-carbonyl)-1-oxoisoindolin-2-yl)piperidine-2,6-dione] | 10 to 100 |  | 
> 1000 | O=C1CCC(c2nc3ccc(C(=O)N4CC5(C=C(c6ccc(F)cc6)C5)C4)cc3o2)C(=O)N1 (centres unmarked) [Example 206, 3-(6-(6-(4-fluorophenyl)-2-azaspiro[3.3]hept-5-ene-2-carbonyl)benzo[d]oxazol-2-yl)piperidine-2,6-dione] | > 1000 |  | 
 | O=C1CCC(N2Cc3cc(C(=O)N4CC5(C=C(c6cccc(F)c6)C5)C4)ccc3C2=O)C(=O)N1 (centres unmarked) [Example 207, 3-(5-(6-(3-fluorophenyl)-2-azaspiro[3.3]hept-5-ene-2-carbonyl)-1-oxoisoindolin-2-yl)piperidine-2,6-dione] | 10 to 100 | < 100 | 
 | O=C1CCC(N2Cc3cc(C(=O)N4CC5(C=C(c6ccccc6F)C5)C4)ccc3C2=O)C(=O)N1 (centres unmarked) [Example 208, 3-(5-(6-(2-fluorophenyl)-2-azaspiro[3.3]hept-5-ene-2-carbonyl)-1-oxoisoindolin-2-yl)piperidine-2,6-dione] | < 10 | < 100 | 
 | O=C1CCC(N2Cc3cc(C(=O)N4CC5(C=C(c6ccc(C(F)(F)F)cc6)C5)C4)ccc3C2=O)C(=O)N1 (centres unmarked) [Example 209, 3-(1-oxo-5-(6-(4-(trifluoromethyl)phenyl)-2-azaspiro[3.3]hept-5-ene-2-carbonyl)isoindolin-2-yl)piperidine-2,6-dione] | < 10 | < 100 | 
> 1000 | O=C1CCC(c2nc3ccc(C(=O)N4Cc5c(F)ccc(OC(F)(F)F)c5C4)cc3o2)C(=O)N1 (centres unmarked) [Example 210, 3-(6-(4-fluoro-7-(trifluoromethoxy)isoindoline-2-carbonyl)benzo[d]oxazol-2-yl)piperidine-2,6-dione] | > 1000 |  | 
> 1000 | O=C1CCC(c2nc3ccc(C(=O)N4Cc5cccc(F)c5C45CC5)cc3o2)C(=O)N1 (centres unmarked) [Example 211, 3-(6-(7′-fluorospiro[cyclopropane-1,1′-isoindoline]-2′-carbonyl)benzo[d]oxazol-2-yl)piperidine-2,6-dione] | 100 to 1000 |  | 
100 to 300 | O=C1CCC(N2Cc3cc(C(=O)NC4CC5(C4)CC(c4ccc(F)c(F)c4)C5)ccc3C2=O)C(=O)N1 (centres unmarked) [Example 217, N-(6-(3,4-difluorophenyl)spiro[3.3]heptan-2-yl)-2-(2,6-dioxopiperidin-3-yl)-1-oxoisoindoline-5-carboxamide] | 10 to 100 |  | 
< 100 | O=C1CCC(N2Cc3cc(C(=O)NC4CC5(C4)CC(c4ccc(F)cc4F)C5)ccc3C2=O)C(=O)N1 (centres unmarked) [Example 218, N-(6-(2,4-difluorophenyl)spiro[3.3]heptan-2-yl)-2-(2,6-dioxopiperidin-3-yl)-1-oxoisoindoline-5-carboxamide] | < 10 |  | 
100 to 300 | N#Cc1ccc(C2CC3(CC(NC(=O)c4ccc5c(c4)CN(C4CCC(=O)NC4=O)C5=O)C3)C2)cc1 (centres unmarked) [Example 219, N-(6-(4-cyanophenyl)spiro[3.3]heptan-2-yl)-2-(2,6-dioxopiperidin-3-yl)-1-oxoisoindoline-5-carboxamide] | 10 to 100 |  | 
 | Cc1ccc(C2CC3(CC(NC(=O)c4ccc5c(c4)CN(C4CCC(=O)NC4=O)C5=O)C3)C2)cc1 (centres unmarked) [Example 227, 2-(2,6-dioxopiperidin-3-yl)-1-oxo-N-(6-(p-tolyl)spiro[3.3]heptan-2-yl)isoindoline-5-carboxamide] | < 10 | < 100 | 
< 100 | O=C1CCC(N2Cc3cc(C(=O)N4CC5(CC(c6ccc(C(F)(F)F)cc6)C5)C4)ccc3C2=O)C(=O)N1 (centres unmarked) [Example 230, 3-(1-oxo-5-(6-(4-(trifluoromethyl)phenyl)-2-azaspiro[3.3]heptane-2-carbonyl)isoindolin-2-yl)piperidine-2,6-dione] | < 10 |  | 
< 100 | Cc1ccc(C2CC3(C2)CN(C(=O)c2ccc4c(c2)CN(C2CCC(=O)NC2=O)C4=O)C3)cc1 (centres unmarked) [Example 231, 3-(1-oxo-5-(6-(p-tolyl)-2-azaspiro[3.3]heptane-2-carbonyl)isoindolin-2-yl)piperidine-2,6-dione] | < 10 |  | 
 | O=C1CCC(N2Cc3cc(C(=O)N4CC5(C=C(c6ccc(F)cc6F)C5)C4)ccc3C2=O)C(=O)N1 (centres unmarked) [Example 235] | < 10 | < 100 | 
 | Cc1ccc(C2=CC3(C2)CN(C(=O)c2ccc4c(c2)CN(C2CCC(=O)NC2=O)C4=O)C3)cc1 (centres unmarked) [Example 236, 3-(1-oxo-5-(6-(p-tolyl)-2-azaspiro[3.3]hept-5-ene-2-carbonyl)isoindolin-2-yl)piperidine-2,6-dione] | < 10 | < 100 | 
 | O=C1CCC(N2Cc3cc(C(=O)N4CC5(C=C(c6ccc(C(F)(F)F)c(F)c6)C5)C4)ccc3C2=O)C(=O)N1 (centres unmarked) [Example 240, 3-(5-(6-(3-fluoro-4-(trifluoromethyl)phenyl)-2-azaspiro[3.3]hept-5-ene-2-carbonyl)-1-oxoisoindolin-2-yl)piperidine-2,6-dione] | < 10 | < 100 | 
 | O=C1CCC(N2Cc3cc(C(=O)N4CC5(C=C(c6ccc(C(F)(F)F)cc6F)C5)C4)ccc3C2=O)C(=O)N1 (centres unmarked) [Example 241, 3-(5-(6-(2-fluoro-4-(trifluoromethyl)phenyl)-2-azaspiro[3.3]hept-5-ene-2-carbonyl)-1-oxoisoindolin-2-yl)piperidine-2,6-dione] | 10 to 100 | < 100 | 
100 to 300 | O=C1CCC(N2Cc3cc(C(=O)NC4CC5(C=C(c6ccc(F)cc6F)C5)C4)c(F)cc3C2=O)C(=O)N1 (centres unmarked) [Example 254, N-(6-(2,4-difluorophenyl)spiro[3.3]hept-5-en-2-yl)-2-(2,6-dioxopiperidin-3-yl)-6-fluoro-1-oxoisoindoline-5-carboxamide] | 10 to 100 |  | 
< 100 | O=C1CCC(N2Cc3cc(C(=O)NC4CC5(C4)CC(c4ccc(F)cc4F)C5)c(F)cc3C2=O)C(=O)N1 (centres unmarked) [Example 255, N-(6-(2,4-difluorophenyl)spiro[3.3]heptan-2-yl)-2-(2,6-dioxopiperidin-3-yl)-6-fluoro-1-oxoisoindoline-5-carboxamide] | 10 to 100 |  | 
100 to 300 | O=C1CCC(N2Cc3cc(C(=O)NC4CC5(C4)CC(c4ccc(C(F)(F)F)cc4F)C5)ccc3C2=O)C(=O)N1 (centres unmarked) [Example 258, 2-(2,6-dioxopiperidin-3-yl)-N-(6-(2-fluoro-4-(trifluoromethyl)phenyl)spiro[3.3]heptan-2-yl)-1-oxoisoindoline-5-carboxamide] | 100 to 1000 |  | 
 | O=C1CCC(N2Cc3cc(C(=O)N4Cc5c(Cl)ccc(C(F)(F)F)c5C4)ccc3C2=O)C(=O)N1 (centres unmarked) [Example 261, 3-(5-(4-chloro-7-(trifluoromethyl)isoindoline-2-carbonyl)-1-oxoisoindolin-2-yl)piperidine-2,6-dione] | 10 to 100 | 100 to 300 | 
 | O=C1CCC(N2Cc3cc(C(=O)N4Cc5ccc(OC(F)(F)F)c(F)c5C4)ccc3C2=O)C(=O)N1 (centres unmarked) [Example 263, 3-(5-(4-fluoro-5-(trifluoromethoxy)isoindoline-2-carbonyl)-1-oxoisoindolin-2-yl)piperidine-2,6-dione] | 10 to 100 | 100 to 300 | 
 | O=C1CCC(N2Cc3cc(C(=O)N4Cc5cc(F)cc(C(F)(F)F)c5C4)ccc3C2=O)C(=O)N1 (centres unmarked) [Example 264, 3-(5-(6-fluoro-4-(trifluoromethyl)isoindoline-2-carbonyl)-1-oxoisoindolin-2-yl)piperidine-2,6-dione] | 10 to 100 | < 100 | 

Structure (SMILES) | DC50 (GSPT1; [3]) [nM] | IC50 (NCI-H1155 cells; [1]) [nM] | DC50 (GSPT1; [2]) [nM] | IC50 (NCI-H1155 cells; NCI-H1155, 72 h) [nM]
O=C1CCC(N2Cc3cc(C(=O)NC4CC5(C4)CC(c4ccc(C(F)(F)F)cc4)C5)ccc3C2=O)C(=O)N1 (centres unmarked) [Example 226, 2-(2,6-dioxopiperidin-3-yl)-1-oxo-N-(6-(4-(trifluoromethyl)phenyl)spiro[3.3]heptan-2-yl)isoindoline-5-carboxamide] | 100 to 300 | 10 to 100 |  | 
